Experiment: solvents tested for dissolving the acid and the cannabinoid
Type: physicochemical
Conditions: compared with other solvents, including other alcohols
Method: Various solvents are tested, including other alcohols.

SMILES: CC(O)CO (stereo not shown) [Propylene glycol]
- dissolution of the acid and the cannabinoid in the solvent: dissolve both the acid and the cannabinoid efficiently and without excessive heating
